The test addresses 5-HT2AR (Homo sapiens, UniProt P28223). Description: 5-HT2AR radioligand binding assay.
5-HT2AR, sequence (P28223 whole entry): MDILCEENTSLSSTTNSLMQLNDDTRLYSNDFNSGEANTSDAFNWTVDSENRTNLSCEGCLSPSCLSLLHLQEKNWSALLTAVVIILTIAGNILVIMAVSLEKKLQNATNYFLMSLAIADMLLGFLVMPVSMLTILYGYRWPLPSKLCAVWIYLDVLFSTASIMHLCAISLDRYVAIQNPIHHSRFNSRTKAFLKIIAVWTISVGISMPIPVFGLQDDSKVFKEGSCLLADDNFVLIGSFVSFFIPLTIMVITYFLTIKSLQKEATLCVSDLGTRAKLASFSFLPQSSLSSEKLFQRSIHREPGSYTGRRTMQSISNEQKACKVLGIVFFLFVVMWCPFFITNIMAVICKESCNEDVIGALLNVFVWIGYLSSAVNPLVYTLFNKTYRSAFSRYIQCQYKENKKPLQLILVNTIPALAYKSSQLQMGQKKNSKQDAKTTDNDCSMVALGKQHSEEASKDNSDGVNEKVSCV
Compound `COc1cc(CCNCc2ccccc2OC)c(OC)cc1C` [Compd 6, 2-(2,5-dimethoxy-4-methylphenyl)-N-(2-methoxybenzyl)ethanamine] gave an inhibitory constant (Ki) of 2.88 nM.

Compound `COc1cc(CCNCc2ccccc2F)c(OC)cc1Br` [Compd 12, 4-bromo-N-[(2-fluorophenyl)methyl]-2,5-dimethoxy-benzeneethanamine] returned an inhibition constant (Ki) of 3.63 nM.

As for `CCc1cc(OC)c(CCNCc2ccccc2OC)cc1OC` [Compd 7, 2-(4-ethyl-2,5-dimethoxyphenyl)-N-(2-methoxybenzyl)ethan-1-amine], the Ki was determined as 1.52 nM.

In turn, `COc1cc(CCNCc2ccccc2OC)c(OC)cc1Cl` [Compd 8, 2-(4-chloro-2,5-dimethoxyphenyl)-N-(2-methoxybenzyl)ethanamine] had a Ki of 0.817 nM.

For `COc1cc(CCNCc2ccccc2F)c(OC)cc1Cl` [Compd 11, 4-chloro-N-[(2-fluorophenyl)methyl]-2,5-dimethoxy-benzeneethanamine], the inhibition constant (Ki) stood at 10.8 nM. This Ki lies about 13-fold higher than the previous one.

As to `CCCN(CC)CCc1c[nH]c2ccc(OC)cc12` [Compd 20, 5-methoxy -N-ethyl-N-propyl tryptamine], the Ki amounted to 122 nM.

With `C=CCN(CC=C)CCc1c[nH]c2ccc(OC)cc12` [Compd 25, N-allyl-N-[2-(5-methoxy-1H-indol-3-yl)ethyl] prop-2-en-1-amine], the inhibitory constant (Ki) was 258 nM.

The compound `COc1cc([N+](=O)[O-])c(OC)cc1CCN` [Compd 2, 2,5-Dimethoxy-4-nitrophenethylamine] gave a Ki of 25.2 nM.

Regarding `CCCc1cc(OC)c(CCN)cc1OC` [Compd 1, 2,5-dimethoxy-4-propyl-benzeneethanamine], the Ki is 3.47 nM.

As to `CCN(CC)CCc1c[nH]c2cccc(OC(C)=O)c12` [Compd 18, 4-Acetoxy-N,N-diethyltryptamine], the affinity, expressed as Ki, was 595 nM.

The Ki is the dissociation constant of the complex between target and ligand, obtained from inhibition or displacement.

For the origin of these results see PMC9970836 (Biomolecules & Therapeutics, 2022).
